Source: ChEMBL document CHEMBL4330128, “Discovery of two novel branched peptidomimetics containing endomorphin-2 and RF9 pharmacophores: Synthesis and neuropharmacological evaluation” (Bioorg Med Chem, 2019)
Calls of active or inactive are those of the source. No cut-off for these calls is given here. Where a SMILES comes first, the peptide text is derived from it. Side-chain parts run from the residue outwards. The star is where a group is joined. Adamantane1carbonyl = O=C(C12CC3CC(CC(C3)C1)C2)*

How the values were obtained:
[1] = tested on: Mus musculus; test: Antinociceptive activity in Kunming mouse model of thermal-induced nociception assessed as increase in latency to tail withdrawal at 10 nmol, icv measured up to 60 mins by tail flick test; format: functional, organism-based
[2] = Toxicity in Kunming mouse assessed as impairment of motor coordination at 20 nmol, icv measured after 10 to 40 mins by rotarod test; conditions: in vivo, icv_or_intrathecal
[3] = tested on: Mus musculus; test: Antinociceptive activity in Kunming mouse model of thermal-induced nociception assessed as increase in latency to tail withdrawal at 20 nmol, icv measured up to 60 mins in presence of mu-opioid receptor antagonist beta-FNA by tail flick test; format: functional, organism-based
[4] = target: T1, Neuropeptide FF receptor 2 (Homo sapiens, UniProt Q9Y5X5); test: Antagonist activity at NPFF2 receptor (unknown origin) expressed in HEK293A cells assessed as reversal of […] induced inhibition of forskolin-stimulated cAMP accumulation measured after 30 mins; format: functional, cell-based
T1 sequence (Q9Y5X5 whole entry): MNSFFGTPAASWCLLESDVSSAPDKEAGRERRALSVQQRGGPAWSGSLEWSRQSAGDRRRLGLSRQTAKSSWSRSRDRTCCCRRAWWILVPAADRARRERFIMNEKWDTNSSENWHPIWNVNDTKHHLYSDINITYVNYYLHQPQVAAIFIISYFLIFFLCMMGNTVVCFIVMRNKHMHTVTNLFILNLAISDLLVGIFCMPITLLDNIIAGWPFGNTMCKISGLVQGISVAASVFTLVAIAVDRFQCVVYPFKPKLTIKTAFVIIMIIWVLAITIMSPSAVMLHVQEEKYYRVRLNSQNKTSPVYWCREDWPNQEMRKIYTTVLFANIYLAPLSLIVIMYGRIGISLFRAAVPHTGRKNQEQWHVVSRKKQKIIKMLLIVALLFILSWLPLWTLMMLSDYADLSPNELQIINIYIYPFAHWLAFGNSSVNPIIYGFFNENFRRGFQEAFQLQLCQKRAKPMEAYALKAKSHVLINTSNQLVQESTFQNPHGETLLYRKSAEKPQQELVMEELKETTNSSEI

[5] = tested on: Mus musculus; test: Antiallodynic activity in carrageenan-induced Kunming mouse model of mechanical hyperalgesia administered as intrathecal injection after 10 to 90 mins in presence of opioid receptor antagonist naloxone by Von Frey filament assay; format: functional, organism-based
[6] = Toxicity in Kunming mouse assessed as impairment of motor coordination at 20 nmol, it measured after 10 to 40 mins by rotarod test; conditions: in vivo, icv_or_intrathecal
[7] = tested on: Mus musculus; test: Antinociceptive activity in Kunming mouse model of thermal-induced nociception assessed as increase in latency to tail withdrawal at 10 to 20 nmol, icv administered once daily for 5 to 8 days measured daily at 30 mins post dose by tail flick test; format: functional, organism-based
[8] = target: Neuropeptide FF receptor 2 (Mus musculus) (UniProt Q924H0); test: Antagonist activity at NPFF2 receptor in mouse Neuro2a cells assessed as inhibition of NPFF-induced neurite outgrowth by measuring neurite outgrowth at 10 uM after 18 hrs by phase contrast microscopic analysis (reference value: 24.05 +/- 1.19%); format: cell-based; parameters: scale not given: the % may be the effect or the level left
Sequence of Neuropeptide FF receptor 2 (Mus musculus) (Q924H0 whole entry): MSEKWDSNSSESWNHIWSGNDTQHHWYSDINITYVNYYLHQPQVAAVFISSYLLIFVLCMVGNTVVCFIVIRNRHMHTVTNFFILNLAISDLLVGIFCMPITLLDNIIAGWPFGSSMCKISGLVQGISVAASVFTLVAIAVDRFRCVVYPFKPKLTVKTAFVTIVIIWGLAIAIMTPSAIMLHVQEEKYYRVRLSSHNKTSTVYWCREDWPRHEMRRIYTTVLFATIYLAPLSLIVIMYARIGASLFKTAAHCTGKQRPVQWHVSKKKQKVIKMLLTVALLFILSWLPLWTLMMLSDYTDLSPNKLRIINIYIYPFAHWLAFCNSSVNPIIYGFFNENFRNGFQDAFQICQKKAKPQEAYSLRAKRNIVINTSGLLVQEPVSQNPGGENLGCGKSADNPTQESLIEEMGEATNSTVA

[9] = tested on: Mus musculus; test: Antiallodynic activity in carrageenan-induced Kunming mouse model of mechanical hyperalgesia administered as intrathecal injection after 10 to 90 mins in presence of NPFF receptor antagonist RF9 by Von Frey filament assay; format: functional, organism-based
[10] = target: Kappa-type opioid receptor (Homo sapiens) (UniProt P41145)
Sequence of Kappa-type opioid receptor (Homo sapiens) (P41145 whole entry): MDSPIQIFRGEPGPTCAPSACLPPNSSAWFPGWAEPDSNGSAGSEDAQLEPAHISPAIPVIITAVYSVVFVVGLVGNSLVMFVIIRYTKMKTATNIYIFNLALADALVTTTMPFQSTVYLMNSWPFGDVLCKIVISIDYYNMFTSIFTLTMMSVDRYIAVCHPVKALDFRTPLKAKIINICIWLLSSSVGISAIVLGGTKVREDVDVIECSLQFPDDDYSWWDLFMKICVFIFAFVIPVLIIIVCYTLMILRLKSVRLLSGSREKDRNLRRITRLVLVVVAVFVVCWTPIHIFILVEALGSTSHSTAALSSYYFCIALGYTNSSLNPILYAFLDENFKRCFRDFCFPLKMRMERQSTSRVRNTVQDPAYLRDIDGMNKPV
Description: Agonist activity at kappa-opioid receptor (unknown origin) expressed in HEK293A cells assessed as inhibition of forskolin-induced cAMP accumulation measured after 30 mins

[11] = target: Delta-type opioid receptor (Homo sapiens, UniProt P41143); test: Agonist activity at delta-opioid receptor (unknown origin) expressed in HEK293A cells assessed as inhibition of forskolin-induced cAMP accumulation measured after 30 mins; format: functional, cell-based
Sequence of Delta-type opioid receptor (P41143 whole entry): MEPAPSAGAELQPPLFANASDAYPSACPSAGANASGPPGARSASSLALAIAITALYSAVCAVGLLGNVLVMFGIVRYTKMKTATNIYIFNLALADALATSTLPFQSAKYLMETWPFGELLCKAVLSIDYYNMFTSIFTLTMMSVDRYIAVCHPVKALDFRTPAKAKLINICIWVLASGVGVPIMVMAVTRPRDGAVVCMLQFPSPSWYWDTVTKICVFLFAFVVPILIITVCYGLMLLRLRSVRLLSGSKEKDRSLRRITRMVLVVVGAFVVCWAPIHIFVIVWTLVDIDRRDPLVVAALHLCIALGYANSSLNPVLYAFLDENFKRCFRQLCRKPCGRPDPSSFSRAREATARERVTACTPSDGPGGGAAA

[12] = tested on: Mus musculus; test: Antinociceptive activity in Kunming mouse model of thermal-induced nociception assessed as increase in latency to tail withdrawal at 20 nmol, icv measured up to 60 mins in presence of opioid receptor antagonist naloxone by tail flick test; format: functional, organism-based
[13] = target: T1, Neuropeptide FF receptor 2; test: Agonist activity at NPFF2 receptor (unknown origin) expressed in HEK293A cells assessed as inhibition of forskolin-stimulated cAMP accumulation measured after 30 mins; format: functional, cell-based
[14] = target: T2, Neuropeptide FF receptor 1 (Homo sapiens, UniProt Q9GZQ6); test: Agonist activity at NPFF1 receptor (unknown origin) expressed in HEK293A cells assessed as inhibition of forskolin-stimulated cAMP accumulation measured after 30 mins; format: functional, cell-based
T2 sequence (Q9GZQ6 whole entry): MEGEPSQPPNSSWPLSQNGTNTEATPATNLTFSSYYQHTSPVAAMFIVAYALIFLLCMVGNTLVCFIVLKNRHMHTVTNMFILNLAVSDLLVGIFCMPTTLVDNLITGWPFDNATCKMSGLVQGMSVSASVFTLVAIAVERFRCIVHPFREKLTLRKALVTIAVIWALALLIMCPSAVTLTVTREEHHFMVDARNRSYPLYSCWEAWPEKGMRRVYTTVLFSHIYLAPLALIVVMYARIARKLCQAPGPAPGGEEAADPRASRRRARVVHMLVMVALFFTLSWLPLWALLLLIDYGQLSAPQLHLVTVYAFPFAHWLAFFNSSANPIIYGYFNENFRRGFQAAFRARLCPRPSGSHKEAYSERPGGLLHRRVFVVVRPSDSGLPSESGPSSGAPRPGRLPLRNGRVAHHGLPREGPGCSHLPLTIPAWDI

[15] = target: T2, Neuropeptide FF receptor 1; test: Antagonist activity at NPFF1 receptor (unknown origin) expressed in HEK293A cells assessed as reversal of […] induced inhibition of forskolin-stimulated cAMP accumulation measured after 30 mins; format: functional, cell-based
[16] = tested on: Mus musculus; test: Antiallodynic activity in carrageenan-induced Kunming mouse model of mechanical hyperalgesia administered as intrathecal injection after 10 to 90 mins by Von Frey filament assay; format: functional
[17] = target: Mu-type opioid receptor (Homo sapiens, UniProt P35372); test: Agonist activity at mu-opioid receptor (unknown origin) expressed in HEK293A cells assessed as inhibition of forskolin-induced cAMP accumulation measured after 30 mins; format: functional, cell-based
Sequence of Mu-type opioid receptor (P35372 whole entry): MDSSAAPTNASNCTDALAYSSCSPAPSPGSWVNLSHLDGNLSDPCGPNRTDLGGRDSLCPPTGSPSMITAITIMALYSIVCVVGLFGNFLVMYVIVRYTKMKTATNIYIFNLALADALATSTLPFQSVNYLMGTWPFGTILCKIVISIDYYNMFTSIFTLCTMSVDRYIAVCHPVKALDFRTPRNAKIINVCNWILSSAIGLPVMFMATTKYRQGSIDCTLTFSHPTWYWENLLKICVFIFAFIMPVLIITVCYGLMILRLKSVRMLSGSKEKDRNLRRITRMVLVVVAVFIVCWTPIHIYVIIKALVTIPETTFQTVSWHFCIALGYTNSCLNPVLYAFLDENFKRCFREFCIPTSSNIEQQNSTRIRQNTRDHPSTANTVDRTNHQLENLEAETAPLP

[18] = tested on: Mus musculus; test: Antinociceptive activity in Kunming mouse model of thermal-induced nociception assessed as increase in latency to tail withdrawal at 2 to 4 nmol, icv administered once daily for 8 days measured daily at 30 mins post dose in presence of NPFF receptor antagonist RF9 by tail flick test; format: functional, organism-based
[19] = tested on: N2a; test: Effect on neurite outgrowth in mouse Neuro2a cells at 10 uM after 18 hrs by phase contrast microscopic analysis relative to control; format: cell-based
[20] = tested on: Mus musculus; test: Antinociceptive activity in Kunming mouse model of thermal-induced nociception assessed as increase in latency to tail withdrawal at 20 nmol, icv measured up to 60 mins in presence of kappa-opioid receptor antagonist nor-BNI by tail flick test; format: functional, organism-based
[21] = tested on: Mus musculus; test: Antinociceptive activity in Kunming mouse model of thermal-induced nociception assessed as increase in latency to tail withdrawal at 20 nmol, icv measured up to 60 mins in presence of delta-opioid receptor antagonist naltrindole by tail flick test; format: functional, organism-based
[22] = Toxicity in Kunming mouse assessed as inhibition of gastrointestinal transit by measuring reduction in distance traveled by charcoal at 10 mg/kg, ip dosed 15 mins prior charcoal meal measured after 30 mins; format: organism-based; conditions: in vivo, 0.5 h
[23] = target: T1, Neuropeptide FF receptor 2; test: Agonist activity at NPFF2 receptor (unknown origin) expressed in HEK293A cells assessed as inhibition of forskolin-stimulated cAMP accumulation measured after 30 mins relative to NPFF; format: functional, cell-based
[24] = Toxicity in Kunming mouse assessed as inhibition of gastrointestinal transit by measuring reduction in distance traveled by charcoal at 5 to 20 nmol, icv dosed 15 mins prior charcoal meal measured after 30 mins; format: organism-based; conditions: in vivo, icv_or_intrathecal, 0.5 h
[25] = tested on: Mus musculus; test: Antinociceptive activity in Kunming mouse model of thermal-induced nociception assessed as increase in latency to tail withdrawal at 10 nmol, icv measured up to 60 mins in presence of NPFF receptor antagonist RF9 by tail flick test; format: functional, organism-based
[26] = tested on: Mus musculus; test: Antinociceptive activity in icv dosed Kunming mouse model of thermal-induced nociception assessed as increase in latency to tail withdrawal by tail flick test; format: functional
[27] = tested on: Mus musculus; test: Antinociceptive activity in Kunming mouse model of thermal-induced nociception assessed as increase in latency to tail withdrawal at 5 nmol, icv measured up to 60 mins by tail flick test; format: functional, organism-based
[28] = Toxicity in Kunming mouse assessed as inhibition of gastrointestinal transit by measuring reduction in distance traveled by charcoal at 10 to 30 mg/kg, ip dosed 15 mins prior charcoal meal measured after 30 mins; format: organism-based; conditions: in vivo, 0.5 h
[29] = tested on: Mus musculus; test: Antinociceptive activity in icv dosed Kunming mouse model of thermal-induced nociception assessed as increase in latency to tail withdrawal up to 60 mins radiant heat tail flick method; format: functional
[30] = tested on: Mus musculus; test: Antinociceptive activity in Kunming mouse model of thermal-induced nociception assessed as increase in latency to tail withdrawal at 2 to 4 nmol, icv administered once daily for 8 days measured on days 6 to 8 at 30 mins post dose in presence of NPFF receptor antagonist RF9 by tail flick test; format: functional, organism-based
[31] = tested on: Mus musculus; test: Antinociceptive activity in Kunming mouse model of thermal-induced nociception assessed as increase in latency to tail withdrawal at 4 nmol, icv administered once daily for 8 days measured daily at 30 mins post dose by tail flick test relative to control; format: functional
[32] = tested on: Mus musculus; test: Antinociceptive activity in Kunming mouse model of thermal-induced nociception assessed as increase in latency to tail withdrawal at 2 nmol, icv administered once daily for 8 days measured daily at 30 mins post dose by tail flick test relative to control; format: functional
[33] = tested on: Mus musculus; test: Antinociceptive activity in Kunming mouse model of thermal-induced nociception assessed as increase in latency to tail withdrawal at 2 to 4 nmol, icv administered once daily for 5 days measured daily at 30 mins post dose by tail flick test; format: functional, organism-based

Compound: COC(=O)/C=C/C(=O)N[C@@H]1CC[C@@]2(O)[C@H]3Cc4ccc(O)c5c4[C@@]2(CCN3CC2CC2)[C@H]1O5
- Activity [1]: inactive

Compound: N=C(N)NCCC[C@H](NC(=O)C12CC3CC(CC(C3)C1)C2)C(=O)N[C@@H](Cc1ccccc1)C(=O)N[C@@H](CCCCNC(=O)[C@H](Cc1ccccc1)NC(=O)[C@H](Cc1ccccc1)NC(=O)[C@@H]1CCCN1C(=O)[C@@H](N)Cc1ccc(O)cc1)C(N)=O
- Activity [2]: Non-Toxic
- Activity [3]: inactive
- IC50 [4]: 190 nM
- Activity [5]: inactive
- Activity [6]: Non-Toxic
- Activity [7]: Active
- Activity [8]: 14.1%
- Activity [9]: inactive
- pEC50 [10]: inactive
- Emax [11]: inactive
- pEC50 [11]: inactive
- Activity [12]: inactive
- EC50 [13]: 250 nM
- Emax [13]: 31.3%
- inhibition [13]: Dose-dependent effect
- Emax [14]: inactive
- pEC50 [14]: inactive
- IC50 [15]: 190 nM
- inhibition [15]: Dose-dependent effect
- Activity [16]: Dose-dependent effect
- ED50 [16]: 8.16 nmol
- EC50 [17]: 1900 nM
- Emax [17]: 62%
- Activity [18]: Active
- Activity [19]: 12.71%
- Activity [20]: Active
- Activity [21]: Active
- Activity [22]: Non-Toxic
- Emax [23]: 60%
- Activity [24]: Non-Toxic
- Activity [25]: Active
- ED50 [26]: 4.8 nmol

Compound: Oc1ccc2c3c1O[C@H]1c4[nH]c5ccccc5c4C[C@@]4(O)[C@@H](C2)N(CC2CC2)CC[C@]314
- Activity [1]: inactive

Compound: CC(C)C[C@H](NC(=O)[C@H](Cc1ccccc1)NC(=O)[C@H](C)N(C)C(=O)[C@@H]1CCCN1C(=O)[C@H](N)CC(N)=O)C(=O)N[C@@H](Cc1ccccc1)C(=O)N[C@@H](CCC(N)=O)C(=O)N1CCC[C@H]1C(=O)N[C@@H](CCC(N)=O)C(=O)N[C@@H](CCCNC(=N)N)C(=O)N[C@@H](Cc1ccccc1)C(N)=O
- Activity [5]: inactive
- Activity [9]: inactive
- Activity [16]: Dose-dependent effect
- ED50 [16]: 26.2 nmol

Compound: N=C(N)NCCC[C@H](NC(=O)C12CC3CC(CC(C3)C1)C2)C(=O)N[C@@H](Cc1ccccc1)C(=O)NCCCC[C@H](NC(=O)[C@H](Cc1ccccc1)NC(=O)[C@H](Cc1ccccc1)NC(=O)[C@@H]1CCCN1C(=O)[C@@H](N)Cc1ccc(O)cc1)C(N)=O (H-YPFFK([Phe-Arg-Adamantane1carbonyl])-NH2)
- Activity [2]: Non-Toxic
- IC50 [4]: 520 nM
- Activity [5]: inactive
- Activity [6]: Non-Toxic
- Activity [7]: Active
- Activity [8]: 10.3%
- Activity [9]: inactive
- pEC50 [10]: inactive
- Emax [11]: 55.9%
- EC50 ([11]; read-out: EC50): 2240 nM
- EC50 ([11]; read-out: pEC50 (converted)): 2000 nM
- Activity [12]: inactive
- EC50 [13]: 170 nM
- Emax [13]: 26.6%
- inhibition [13]: Dose-dependent effect
- Emax [14]: inactive
- pEC50 [14]: inactive
- IC50 [15]: 520 nM
- inhibition [15]: Dose-dependent effect
- Activity [16]: Dose-dependent effect
- ED50 [16]: 9.25 nmol
- EC50 [17]: 1770 nM
- Emax [17]: 54.3%
- Activity [18]: Active
- Activity [19]: 11.88%
- Activity [22]: Non-Toxic
- Emax [23]: 50.9%
- Activity [24]: Non-Toxic
- Activity [25]: Active
- ED50 [26]: 6.27 nmol

Compound: N=C(N)NCCC[C@H](NC(=O)C12CC3CC(CC(C3)C1)C2)C(=O)N[C@@H](Cc1ccccc1)C(N)=O
- Activity [8]: 12.9%
- inhibition [15]: Dose-dependent effect
- Activity [1]: inactive

Compound: NC(=O)[C@H](Cc1ccccc1)NC(=O)[C@H](CCCN=C(N)N)NC(=O)C12CC3CC(CC(C3)C1)C2
- IC50 [4]: 410 nM
- IC50 [15]: 410 nM
- Activity [19]: 12.41%

Compound: C=CCN1CC[C@]23c4c5ccc(O)c4O[C@H]2C(=O)CC[C@@]3(O)[C@H]1C5
- Activity [27]: inactive

Compound: NC(=O)[C@H](Cc1ccccc1)NC(=O)[C@H](Cc1ccccc1)NC(=O)[C@@H]1CCCN1C(=O)[C@@H](N)Cc1ccc(O)cc1 [ENDOMORPHIN 2]
- Activity [28]: Non-Toxic
- Emax [17]: 76.8%
- Activity [19]: 16.49%
- ED50 [29]: 6.88 nmol

Compound: Oc1ccc2c3c1O[C@H]1c4[nH]c5c(c4C[C@@]4(O)[C@@H](C2)N(CC2CC2)CC[C@]314)C[C@@]1(O)[C@H]2Cc3ccc(O)c4c3[C@@]1(CCN2CC1CC1)[C@H]5O4
- Activity [1]: inactive

Compound: CN1CC[C@]23c4c5ccc(O)c4O[C@H]2[C@@H](O)C=C[C@H]3[C@H]1C5 [MORPHINE]
- Activity [5]: inactive
- Activity [9]: Active
- Activity [30]: Active
- MPE [31]: 9.88%
- Activity [16]: Dose-dependent effect
- ED50 [16]: 0.44 nmol
- MPE [32]: 6.67%
- Activity [22]: Toxic
- Activity [33]: inactive
